From PubChem BioAssay AID2060886 (Molecular Pharmacology Branch, DTP, NCI, 2025)

Test system: 653999-131-R-J2-PDC complex spheroids, growth inhibition
Assay: Anticancer human tumor 653999-131-R-J2-PDC patient-derived lung adenocarcinoma cell line growth inhibition [RAS]
Conditions: for viability, T/C: stronger effect = lower value; active means viability on the fitted dose curve at most 10% of control; inactive means the rest
Outline: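 Multi-cell-type spheroids: tumor cells plus HUVEC endothelial cells and mesenchymal stem cells. RAS-pathway inhibitors were combined with targeted agents, each dosed in half-log steps down from clinical Cmax, or from 10 microM when Cmax was unknown.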

[1] = curve of first compound, second compound 0.00316 µM
[2] = curve of first compound, second compound 0.01 µM
[3] = curve of first compound, second compound 0.0316 µM
[4] = curve of first compound, second compound 0.1 µM
[5] = curve of first compound, second compound 0.316 µM
[6] = curve of first compound, second compound 1 µM
[7] = second compound 0.00316 µM, first compound 0.0316 µM
[8] = second compound 0.00316 µM, first compound 0.1 µM
[9] = second compound 0.00316 µM, first compound 0.316 µM
[10] = second compound 0.00316 µM, first compound 1 µM
[11] = second compound 0.01 µM, first compound 0.0316 µM
[12] = second compound 0.01 µM, first compound 0.1 µM
[13] = second compound 0.01 µM, first compound 0.316 µM
[14] = second compound 0.01 µM, first compound 1 µM
[15] = second compound 0.0316 µM, first compound 0.00316 µM
[16] = second compound 0.0316 µM, first compound 0.01 µM
[17] = second compound 0.0316 µM, first compound 0.0316 µM
[18] = second compound 0.0316 µM, first compound 0.1 µM
[19] = second compound 0.0316 µM, first compound 0.316 µM
[20] = second compound 0.0316 µM, first compound 1 µM
[21] = second compound 0.1 µM, first compound 0.00316 µM
[22] = second compound 0.1 µM, first compound 0.01 µM
[23] = second compound 0.1 µM, first compound 0.0316 µM
[24] = second compound 0.1 µM, first compound 0.1 µM
[25] = second compound 0.1 µM, first compound 0.316 µM
[26] = second compound 0.1 µM, first compound 1 µM
[27] = second compound 0.316 µM, first compound 0.00316 µM
[28] = second compound 0.316 µM, first compound 0.01 µM
[29] = second compound 0.316 µM, first compound 0.0316 µM
[30] = second compound 0.316 µM, first compound 0.1 µM
[31] = second compound 0.316 µM, first compound 0.316 µM
[32] = second compound 0.316 µM, first compound 1 µM
[33] = second compound 1 µM, first compound 0.00316 µM
[34] = second compound 1 µM, first compound 0.01 µM
[35] = second compound 1 µM, first compound 0.0316 µM
[36] = second compound 1 µM, first compound 0.1 µM
[37] = second compound 1 µM, first compound 0.316 µM
[38] = second compound 1 µM, first compound 1 µM
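Further: spheroids exposed to the agents for seven days before the readout.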

CCN1CCN(Cc2ccc(Nc3ncc(F)c(-c4cc(F)c5nc(C)n(C(C)C)c5c4)n3)nc2)CC1 + C=CC(=O)N1CCN(c2nc(OCC3CCCN3C)nc3c(F)c(-c4nc(N)cc(C)c4C(F)(F)F)c(Cl)cc23)C(C)C1
> 1000 nM: IC50 [1] | IC50 [2] | IC50 [3] | IC50 [4] | IC50 [5] | IC50 [6]
inactive: viability, T/C (second compound 0.00316 µM, first compound 0.00316 µM) 90.4% | viability, T/C (second compound 0.00316 µM, first compound 0.01 µM) 79.5% | viability, T/C [7] 68.9% | viability, T/C [8] 61.7% | viability, T/C [9] 80% | viability, T/C [10] 75.4% | viability, T/C (second compound 0.01 µM, first compound 0.00316 µM) 93.4% | viability, T/C (second compound 0.01 µM, first compound 0.01 µM) 84.1% | viability, T/C [11] 69.3% | viability, T/C [12] 66.9% | viability, T/C [13] 67.7% | viability, T/C [14] 69.7% | viability, T/C [15] 106% | viability, T/C [16] 87.1% | viability, T/C [17] 75.8% | viability, T/C [18] 65.3% | viability, T/C [19] 68.1% | viability, T/C [20] 81.7% | viability, T/C [21] 111% | viability, T/C [22] 84% | viability, T/C [23] 67.6% | viability, T/C [24] 73.7% | viability, T/C [25] 63% | viability, T/C [26] 67.1% | viability, T/C [27] 84.8% | viability, T/C [28] 98.6% | viability, T/C [29] 78.2% | viability, T/C [30] 69.4% | viability, T/C [31] 70.7% | viability, T/C [32] 70.5% | viability, T/C [33] 94% | viability, T/C [34] 81.3% | viability, T/C [35] 63.4% | viability, T/C [36] 69.7% | viability, T/C [37] 77.6% | viability, T/C [38] 102%

CC(C)NCC(C(=O)N1CCN(c2ncnc3c2C(C)CC3O)CC1)c1ccc(Cl)cc1 (configuration not stated)
inactive: viability, T/C (compound 0.0316 µM) 96.7% [middle of 4 runs] | viability, T/C (compound 0.1 µM) 96.7% [middle of 4 runs] | viability, T/C (compound 0.316 µM) 77.1% [middle of 4 runs] | viability, T/C (compound 1 µM) 54.2% [middle of 4 runs] | viability, T/C (compound 3.16 µM) 46.6% [middle of 4 runs] | viability, T/C (compound 10 µM) 34.9% [middle of 4 runs]

CC(C)n1nc(-c2ccc3oc(N)nc3c2)c2c(N)ncnc21 + C#Cc1c(F)ccc2cc(O)cc(-c3ncc4c(N5CC6CCC(C5)N6)nc(OCC56CCCN5CC(F)C6)nc4c3F)c12
8.56 nM: IC50 [4]
13.6 nM: IC50 [3]
active: viability, T/C [36] 10.1% | viability, T/C (second compound 3.16 µM, first compound 0.1 µM) 8.31% | viability, T/C (second compound 10 µM, first compound 0.0316 µM) 7.55% | viability, T/C (second compound 10 µM, first compound 0.1 µM) 5.84%
< 0.316 nM: IC50 [6] | IC50 (curve of first compound, second compound 3.16 µM) | IC50 (curve of first compound, second compound 10 µM)
inactive: viability, T/C (second compound 0.0316 µM, first compound 0.000316 µM) 97.1% | viability, T/C (second compound 0.0316 µM, first compound 0.001 µM) 97.5% | viability, T/C [15] 74.1% | viability, T/C [16] 57.8% | viability, T/C [17] 34.1% | viability, T/C [18] 24.7% | viability, T/C (second compound 0.1 µM, first compound 0.000316 µM) 94.5% | viability, T/C (second compound 0.1 µM, first compound 0.001 µM) 99.5% | viability, T/C [21] 68.3% | viability, T/C [22] 49% | viability, T/C [23] 28.1% | viability, T/C [24] 21.3% | viability, T/C (second compound 0.316 µM, first compound 0.000316 µM) 78% | viability, T/C (second compound 0.316 µM, first compound 0.001 µM) 48.8% | viability, T/C [27] 57.9% | viability, T/C [28] 35.3% | viability, T/C [29] 20.2% | viability, T/C [30] 16.2% | viability, T/C (second compound 1 µM, first compound 0.000316 µM) 42.1% | viability, T/C (second compound 1 µM, first compound 0.001 µM) 38.6% | viability, T/C [33] 32.3% | viability, T/C [34] 27.1% | viability, T/C [35] 16.1% | viability, T/C (second compound 3.16 µM, first compound 0.000316 µM) 42% | viability, T/C (second compound 3.16 µM, first compound 0.001 µM) 43.8% | viability, T/C (second compound 3.16 µM, first compound 0.00316 µM) 24.3% | viability, T/C (second compound 3.16 µM, first compound 0.01 µM) 20.1% | viability, T/C (second compound 3.16 µM, first compound 0.0316 µM) 10.5% | viability, T/C (second compound 10 µM, first compound 0.000316 µM) 22.6% | viability, T/C (second compound 10 µM, first compound 0.001 µM) 27.4% | viability, T/C (second compound 10 µM, first compound 0.00316 µM) 17% | viability, T/C (second compound 10 µM, first compound 0.01 µM) 11.6%
2.52 nM: IC50 [5]

CCC(CC)c1cc(NC2CCC(N)C2)n2nccc2n1 (configuration not stated) + C=CC(=O)N1CCN(c2nc(OCC3CCCN3C)nc3c(F)c(-c4nc(N)cc(C)c4C(F)(F)F)c(Cl)cc23)C(C)C1
1910 nM: IC50 [5]
2100 nM: IC50 [6]
2050 nM: IC50 [1]
inactive: viability, T/C [7] 107% | viability, T/C [8] 109% | viability, T/C [9] 95.5% | viability, T/C [10] 101% | viability, T/C (second compound 0.00316 µM, first compound 3.16 µM) 16.5% | viability, T/C (second compound 0.00316 µM, first compound 10 µM) 21.7% | viability, T/C [11] 91.2% | viability, T/C [12] 92.2% | viability, T/C [13] 104% | viability, T/C [14] 99% | viability, T/C (second compound 0.01 µM, first compound 3.16 µM) 16.9% | viability, T/C (second compound 0.01 µM, first compound 10 µM) 18.1% | viability, T/C [17] 93.3% | viability, T/C [18] 117% | viability, T/C [19] 87.4% | viability, T/C [20] 94.3% | viability, T/C (second compound 0.0316 µM, first compound 3.16 µM) 18.2% | viability, T/C (second compound 0.0316 µM, first compound 10 µM) 26% | viability, T/C [23] 99.9% | viability, T/C [24] 95.4% | viability, T/C [25] 112% | viability, T/C [26] 113% | viability, T/C (second compound 0.1 µM, first compound 3.16 µM) 16.1% | viability, T/C (second compound 0.1 µM, first compound 10 µM) 25.5% | viability, T/C [29] 123% | viability, T/C [30] 100% | viability, T/C [31] 93.7% | viability, T/C [32] 89.4% | viability, T/C (second compound 0.316 µM, first compound 3.16 µM) 14.8% | viability, T/C (second compound 0.316 µM, first compound 10 µM) 23.8% | viability, T/C [35] 114% | viability, T/C [36] 97.2% | viability, T/C [37] 111% | viability, T/C [38] 116% | viability, T/C (second compound 1 µM, first compound 3.16 µM) 13.8% | viability, T/C (second compound 1 µM, first compound 10 µM) 20.9%
1970 nM: IC50 [2]
2120 nM: IC50 [4]
2030 nM: IC50 [3]

NC1c2ccccc2OC12CCN(c1cnc3c(N4CCCc5ncccc54)n[nH]c3n1)CC2 (configuration not stated)
> 10000 nM: IC50 (curve of compound)
inactive: viability, T/C (compound 0.0316 µM) 73.8% [middle of 4 runs] | viability, T/C (compound 0.316 µM) 75.5% [middle of 4 runs] | viability, T/C (compound 1 µM) 77.6% [middle of 4 runs] | viability, T/C (compound 3.16 µM) 83.9% [middle of 4 runs] | viability, T/C (compound 10 µM) 78.4% [middle of 4 runs]

C=CC(=O)N1CCN(c2nc(OCC3CCCN3C)nc3c(F)c(-c4nc(N)cc(C)c4C(F)(F)F)c(Cl)cc23)C(C)C1 (configuration not stated)
inactive: viability, T/C (compound 0.0316 µM) 107% [middle of 12 runs] | viability, T/C (compound 0.316 µM) 107% [middle of 12 runs]
> 1000 nM: IC50 (compound alone, run of 09/09/2024) | IC50 (curve of compound)
